The numbers were not newly measured in patent US7115281B2, “Processes for the preparation of oral dosage formulations of modafinil” (Ranbaxy Laboratories Limited, priority 2002, dated 2006), which cites them from elsewhere.

The structures appear in SMILES notation.

Test in data set [1]: not given
This is another data set of the same source.

Take `NC(=O)C[S+]([O-])C(c1ccccc1)c1ccccc1` (centres unmarked) [modafinil]: the Solubility in water entry is given as “less than 1 mg/ml”. Moreover, the “Stability at higher temperatures” value in data set [1] is “unstable”.
